Measurements as given in patent EP0443598A2, “Peptides inhibiting the blood coagulation, their process of preparation and their use” (BEHRINGWERKE Aktiengesellschaft, priority 1990, dated 1991).

System: Standard Humanplasma
Assay: partial thromboplastin time (PTT) test
Format: biochemical, Human
Conditions: blank without peptide 38.8
Protocol: 10 mg des Peptids wurden in 1 ml Puffer (20 mM Tris, 150 mM NaCl pH 7.5) gelöst. Das Peptid wurde in der partiellen Thromboplastinzeit (PTT) gegenüber einem Peptid mit derselben Sequenz getestet, das anstelle von Phe(SO₃ H) jedoch Tyr enthielt.
100 Mikroliter Standard Humanplasma 100 Mikroliter Puffer (s.o.) 100 Mikroliter Kaolin/Pathromtin Reagenz (BEHRINGWERKE AG) 2 Minuten bei 37°C 100 Mikroliter CaCl₂-Lösung

[1] = Verdünnung 1:4 of peptide solution 10 mg in 1 ml buffer (20 mM Tris, 150 mM NaCl pH 7.5)
[2] = Verdünnung 1:8 of peptide solution 10 mg in 1 ml buffer
[3] = Verdünnung 1:16 of peptide solution 10 mg in 1 ml buffer
[4] = Verdünnung 1:32 of peptide solution 10 mg in 1 ml buffer
[5] = Verdünnung 1:64 of peptide solution 10 mg in 1 ml buffer
[6] = Verdünnung 1:128 of peptide solution 10 mg in 1 ml buffer
[7] = Verdünnung 1:256 of peptide solution 10 mg in 1 ml buffer
[8] = Verdünnung 1:512 of peptide solution 10 mg in 1 ml buffer
[9] = Verdünnung 1:1024 of peptide solution 10 mg in 1 ml buffer

Substance | Gerinnungszeiten in Sekunden [1] [Sekunden] | Gerinnungszeiten in Sekunden [2] [Sekunden] | Gerinnungszeiten in Sekunden [3] [Sekunden] | Gerinnungszeiten in Sekunden [4] [Sekunden] | Gerinnungszeiten in Sekunden [5] [Sekunden] | Gerinnungszeiten in Sekunden [6] [Sekunden] | Gerinnungszeiten in Sekunden [7] [Sekunden] | Gerinnungszeiten in Sekunden [8] [Sekunden] | Gerinnungszeiten in Sekunden [9] [Sekunden]
Asn-Gly-Asp-Phe-Glu-Glu-Ile-Pro-Glu-Glu-Tyr-Leu-OH (NGDFEEIPEEYL; printed: Asn-Gly-Asp-Phe-Glu-Glu-Ile-Pro-Glu-Glu-Tyr-Leu-) [Peptid mit Tyr] | 105.2 | 80.5 | 71.0 | 65.0 | 57.7 | 52.8 | 47.3 | 44.7 | 41.7
Asn-Gly-Asp-Phe-Glu-Glu-Ile-Pro-Glu-Glu-Phe(SO₃H)-Leu-OH [Peptid lt. Beispiel] | 147.2 | 111.8 | 89.2 | 81.5 | 72.8 | 63.0 | 56.3 | 52.2 | 46.8
